In assay [1] the target is T1, Bet v 1.0101 (Betula pendula, UniProt P15494).
T1 construct: gene BETVIA
T1 sequence (P15494 2-160): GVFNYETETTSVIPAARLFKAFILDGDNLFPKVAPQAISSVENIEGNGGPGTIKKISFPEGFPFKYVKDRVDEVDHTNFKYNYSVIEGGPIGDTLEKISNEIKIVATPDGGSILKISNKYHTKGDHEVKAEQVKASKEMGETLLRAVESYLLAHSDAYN
Kind of assay: crystal structure (soaked); 1H-15N HSQC NMR titration; relaxation dispersion. Format: binding.

For assay [2], the target named is T1, Bet v 1.0101. Kind of assay: 1H-15N HSQC NMR titration; PFG diffusion NMR; relaxation dispersion. Format: binding.

Counter-ions that a name gives are not always drawn.

Drawing on publication PMC4269767, “Ligand Binding Modulates the Structural Dynamics and Compactness of the Major Birch Pollen Allergen” (Biophysical Journal, 2014), this text covers Kd for 2 molecules.

Consider `CCCCCCCCCCCCOS(=O)(=O)O` [SDS, sodium dodecyl sulfate], for which binding in assay [1] was put at a Kd of 7 µM. Turning to `CCCCC(CC)CCC(CC(C)C)OS(=O)(=O)O` (centres unmarked) [STS, sodium tetradecyl sulfate], in assay [2], the dissociation constant (Kd) was determined as 1 µM.
